Among the data in the supplement of paper PMC10307832 are relative viability values, retold here.

Holding throughout (assay): relative viability (nuclei count vs DMSO), 5 days (fraction); higher = more cells survive
Compound in experiment [1]: CC(C)(C)c1nc(-c2cccc(NS(=O)(=O)c3c(F)cccc3F)c2F)c(-c2ccnc(N)n2)s1 [Dabrafenib] + C[C@@H](Oc1cc(-c2cnn(C3CCNCC3)c2)cnc1N)c1c(Cl)ccc(F)c1Cl [Crizotinib] (partner 1 µM)
An outline of the steps: (§1)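 Nuclei were stained with Hoechst during a one-step fixation (final 0.05% Triton X-100, 1% formaldehyde, 1 ug/ml Hoechst) carried out 5 days after dosing, then counted on 4× images. The cells, lung cancer lines in 1536-well plates, had been dosed by pin tool the day after seeding with one drug alone or a fixed anchor-drug dose plus five library-drug doses (not always all listed) in √10 steps. Relative viability is the nuclei count in treated wells divided by that in vehicle wells, and each value is the median of duplicate plates.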

Compound in experiment [2]: CC(C)(C)c1nc(-c2cccc(NS(=O)(=O)c3c(F)cccc3F)c2F)c(-c2ccnc(N)n2)s1 [Dabrafenib] + Nc1nc2[nH]cc(CCc3ccc(C(=O)N[C@@H](CCC(=O)O)C(=O)O)cc3)c2c(=O)[nH]1 [Pemetrexed] (partner 0.2 µM)
An outline of the steps: as §1

Compound in experiment [3]: CC(C)(C)c1nc(-c2cccc(NS(=O)(=O)c3c(F)cccc3F)c2F)c(-c2ccnc(N)n2)s1 [Dabrafenib] + CCNC(=O)c1noc(-c2cc(C(C)C)c(O)cc2O)c1-c1ccc(CN2CCOCC2)cc1 [Luminespib] (partner 0.01 µM)
Put shortly:
as §1

Compound in experiment [4]: NC(=O)c1ccc(N(C(N)=O)c2c(F)cccc2F)nc1-c1ccc(F)cc1F [VX-702] + COc1cccc2cc(-c3nc([C@H]4CC[C@H](C(=O)O)CC4)n4ncnc(N)c34)[nH]c12 [OSI-027] (partner 0.5 µM)
An outline of the steps: as §1

Consider NCI-H520, for which the relative viability is 0.756 in experiment [1] (first compound 0.003 µM); 0.752 in experiment [1] (first compound 0.009487 µM); 0.732 in experiment [1] (first compound 0.03 µM); 0.582 in experiment [1] (first compound 0.09487 µM); 0.664 in experiment [1] (first compound 0.3 µM); 0.697 in experiment [2] (first compound 0.003 µM). For the same cell line, the relative viability amounted to 0.6 in experiment [2] (first compound 0.009487 µM); 0.625 in experiment [2] (first compound 0.03 µM); 0.669 in experiment [2] (first compound 0.09487 µM); 0.652 in experiment [2] (first compound 0.3 µM); 0.228 in experiment [3] (first compound 0.003 µM); 0.213 in experiment [3] (first compound 0.009487 µM). For the same cell line, the relative viability amounted to 0.21 in experiment [3] (first compound 0.03 µM); 0.262 in experiment [3] (first compound 0.09487 µM); 0.224 in experiment [3] (first compound 0.3 µM); 0.321 in experiment [4] (first compound 0.02 µM); 0.287 in experiment [4] (first compound 0.2 µM); 0.268 in experiment [4] (first compound 0.6325 µM). Also, the relative viability in experiment [4] (first compound 2 µM) was found to be 0.23.

With NCI-H596, the relative viability in experiment [1] (first compound 0.003 µM) amounted to 1.48; in experiment [1] (first compound 0.009487 µM), 1.06; in experiment [1] (first compound 0.03 µM), 0.86; in experiment [1] (first compound 0.09487 µM), 0.954; in experiment [1] (first compound 0.3 µM), 0.932; in experiment [2] (first compound 0.009487 µM) it was 0.492. Moreover, the relative viability in experiment [2] (first compound 0.03 µM) turned out to be 0.44; in experiment [2] (first compound 0.09487 µM), 0.579; in experiment [2] (first compound 0.3 µM) it was 0.469; in experiment [3] (first compound 0.009487 µM), 1.03; in experiment [3] (first compound 0.03 µM), 0.691; in experiment [3] (first compound 0.09487 µM) it was 0.885. The relative viability was 0.927 in experiment [3] (first compound 0.3 µM); 0.807 in experiment [4] (first compound 0.02 µM); 0.737 in experiment [4] (first compound 0.2 µM); 0.797 in experiment [4] (first compound 0.6325 µM); 0.823 in experiment [4] (first compound 2 µM).

For NCI-H647, the relative viability was determined as 1.05 in experiment [1] (first compound 0.009487 µM); 1.04 in experiment [1] (first compound 0.03 µM); 0.976 in experiment [1] (first compound 0.09487 µM); 1.04 in experiment [1] (first compound 0.3 µM); 0.187 in experiment [2] (first compound 0.003 µM); 0.186 in experiment [2] (first compound 0.009487 µM). The relative viability in experiment [2] (first compound 0.03 µM) stood at 0.167; in experiment [2] (first compound 0.09487 µM) it was 0.159; in experiment [2] (first compound 0.3 µM) it was 0.16; in experiment [3] (first compound 0.009487 µM) it was 0.282; in experiment [3] (first compound 0.03 µM), 0.138; in experiment [3] (first compound 0.09487 µM) it was 0.19. Further, the relative viability in experiment [3] (first compound 0.3 µM) worked out at 0.217; in experiment [4] (first compound 0.02 µM), 0.719; in experiment [4] (first compound 0.2 µM), 0.997; in experiment [4] (first compound 0.6325 µM), 0.709; in experiment [4] (first compound 2 µM) it was 0.662.

For the cell line NCI-H650, the relative viability in experiment [1] (first compound 0.009487 µM) worked out at 0.715; in experiment [1] (first compound 0.03 µM), 0.657; in experiment [1] (first compound 0.09487 µM) it was 0.515; in experiment [1] (first compound 0.3 µM), 0.551; in experiment [2] (first compound 0.009487 µM), 0.938; in experiment [2] (first compound 0.03 µM) it was 0.846. Also, the relative viability in experiment [2] (first compound 0.09487 µM) amounted to 0.522; in experiment [2] (first compound 0.3 µM) it was 0.464; in experiment [3] (first compound 0.009487 µM), 0.832; in experiment [3] (first compound 0.03 µM), 0.688; in experiment [3] (first compound 0.09487 µM), 0.56; in experiment [3] (first compound 0.3 µM), 0.461. The results for the relative viability in experiment [4] (first compound 0.02 µM), in experiment [4] (first compound 0.6325 µM) and in experiment [4] (first compound 2 µM) were 0.562, 0.567 and 0.595, respectively.

As for NCI-H661, the relative viability in experiment [1] (first compound 0.003 µM) came out at 1.07; in experiment [1] (first compound 0.009487 µM), 0.958; in experiment [1] (first compound 0.09487 µM), 0.96; in experiment [1] (first compound 0.3 µM), 1.04; in experiment [2] (first compound 0.003 µM), 0.942; in experiment [2] (first compound 0.009487 µM), 0.934. Besides, the relative viability in experiment [2] (first compound 0.03 µM) amounted to 0.876; in experiment [2] (first compound 0.09487 µM) it was 0.931; in experiment [2] (first compound 0.3 µM), 0.933; in experiment [3] (first compound 0.003 µM) it was 0.985; in experiment [3] (first compound 0.009487 µM), 0.927; in experiment [3] (first compound 0.03 µM) it was 0.912. In addition, the relative viability in experiment [3] (first compound 0.09487 µM) was found to be 0.758; in experiment [3] (first compound 0.3 µM) it was 0.855; in experiment [4] (first compound 0.02 µM), 0.708; in experiment [4] (first compound 0.2 µM) it was 0.702; in experiment [4] (first compound 0.6325 µM), 0.748; in experiment [4] (first compound 2 µM) it was 0.893.

Take NCI-H838: the relative viability in experiment [1] (first compound 0.003 µM) came to 0.858; in experiment [1] (first compound 0.009487 µM), 0.905; in experiment [1] (first compound 0.03 µM), 0.759; in experiment [1] (first compound 0.09487 µM), 0.829; in experiment [1] (first compound 0.3 µM), 0.979; in experiment [2] (first compound 0.003 µM), 0.264. In addition, the relative viability in experiment [2] (first compound 0.009487 µM) is 0.252; in experiment [2] (first compound 0.03 µM), 0.239; in experiment [2] (first compound 0.09487 µM), 0.239; in experiment [2] (first compound 0.3 µM) it was 0.245; in experiment [3] (first compound 0.003 µM), 0.35; in experiment [3] (first compound 0.009487 µM), 0.311. Further, the relative viability was found to be 0.236 in experiment [3] (first compound 0.03 µM); 0.292 in experiment [3] (first compound 0.09487 µM); 0.275 in experiment [3] (first compound 0.3 µM); 0.394 in experiment [4] (first compound 0.02 µM); 0.356 in experiment [4] (first compound 0.2 µM); 0.448 in experiment [4] (first compound 0.6325 µM). In addition, the relative viability in experiment [4] (first compound 2 µM) turned out to be 0.409.

As for NCI-H1355, the relative viability was 1.05 in experiment [1] (first compound 0.009487 µM); 0.927 in experiment [1] (first compound 0.03 µM); 1.03 in experiment [1] (first compound 0.3 µM); 1.09 in experiment [2] (first compound 0.009487 µM); 0.965 in experiment [2] (first compound 0.03 µM); 0.804 in experiment [2] (first compound 0.09487 µM). The relative viability stood at 1.08 in experiment [2] (first compound 0.3 µM); 0.83 in experiment [3] (first compound 0.009487 µM); 0.611 in experiment [3] (first compound 0.03 µM); 0.628 in experiment [3] (first compound 0.09487 µM); 0.69 in experiment [3] (first compound 0.3 µM); 0.419 in experiment [4] (first compound 0.02 µM). Also, the relative viability in experiment [4] (first compound 0.2 µM) turned out to be 0.427; in experiment [4] (first compound 0.6325 µM), 0.371; in experiment [4] (first compound 2 µM), 0.405.

Take NCI-H1437: the relative viability was 0.935 in experiment [1] (first compound 0.003 µM); 0.902 in experiment [1] (first compound 0.009487 µM); 0.906 in experiment [1] (first compound 0.03 µM); 0.896 in experiment [1] (first compound 0.09487 µM); 0.978 in experiment [1] (first compound 0.3 µM); 0.338 in experiment [2] (first compound 0.003 µM). Also, the relative viability was 0.304 in experiment [2] (first compound 0.009487 µM); 0.318 in experiment [2] (first compound 0.03 µM); 0.324 in experiment [2] (first compound 0.09487 µM); 0.321 in experiment [2] (first compound 0.3 µM); 1.15 in experiment [3] (first compound 0.003 µM); 1.13 in experiment [3] (first compound 0.009487 µM). Moreover, the relative viability in experiment [3] (first compound 0.03 µM) came to 1.17; in experiment [3] (first compound 0.09487 µM), 1.17; in experiment [3] (first compound 0.3 µM), 1.14; in experiment [4] (first compound 0.02 µM), 0.885; in experiment [4] (first compound 0.2 µM) it was 0.843; in experiment [4] (first compound 0.6325 µM), 0.977. Further, the relative viability in experiment [4] (first compound 2 µM) is 0.987.
